Source: US9157062B2, “Compositions and methods for promoting the generation of PDX1+ pancreatic cells” (President and Fellows of Harvard College, priority 2008, dated 2015)
Structures can show the parent of a compound that is named as a salt. Where two headings read alike, the source gives them in different places.

T1: PKCμ (Homo sapiens, UniProt Q15139)
T1 sequence (Q15139 1-912): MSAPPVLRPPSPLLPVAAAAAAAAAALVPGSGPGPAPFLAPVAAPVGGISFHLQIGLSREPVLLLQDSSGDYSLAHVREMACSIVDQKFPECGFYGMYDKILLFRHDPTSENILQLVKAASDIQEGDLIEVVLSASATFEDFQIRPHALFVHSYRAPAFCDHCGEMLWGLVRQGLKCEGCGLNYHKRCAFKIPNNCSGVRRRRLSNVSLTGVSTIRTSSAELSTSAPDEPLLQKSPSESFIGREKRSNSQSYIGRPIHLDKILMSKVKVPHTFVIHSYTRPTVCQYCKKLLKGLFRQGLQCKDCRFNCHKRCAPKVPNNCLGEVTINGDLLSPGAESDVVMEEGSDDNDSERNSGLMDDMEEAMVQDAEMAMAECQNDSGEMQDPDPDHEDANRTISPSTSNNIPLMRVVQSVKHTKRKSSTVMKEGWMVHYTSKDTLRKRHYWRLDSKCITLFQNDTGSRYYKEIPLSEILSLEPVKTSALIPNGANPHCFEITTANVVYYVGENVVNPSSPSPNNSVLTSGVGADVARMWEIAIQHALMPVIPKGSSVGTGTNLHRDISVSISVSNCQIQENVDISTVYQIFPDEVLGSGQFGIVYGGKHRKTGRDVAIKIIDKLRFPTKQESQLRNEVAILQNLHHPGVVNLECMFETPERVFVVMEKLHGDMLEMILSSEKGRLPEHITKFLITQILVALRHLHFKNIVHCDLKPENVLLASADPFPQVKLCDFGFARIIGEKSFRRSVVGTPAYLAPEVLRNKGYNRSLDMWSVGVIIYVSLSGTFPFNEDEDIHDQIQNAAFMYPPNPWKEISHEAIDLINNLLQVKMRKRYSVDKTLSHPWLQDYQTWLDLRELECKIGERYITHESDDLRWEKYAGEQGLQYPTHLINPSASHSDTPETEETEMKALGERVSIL


Tests used:
[1] = tested on: HUES8-derived population (Pdx1+ cells); experiment: Pdx1 antibody staining of treated HUES8-derived population; assay type: cell-based, human; conditions: for percentage of Pdx1+ cells, PKC antagonists in the presence of ILV: 300 nM ILV plus 1 μM BISI or 10 μM Gö 6983, 4 days; for percentage of Pdx1+ cells, PKC agonists in the absence of ILV: HUES8-derived definitive endoderm population, 500 nM TPB or 14 nM PMA
Method: (§1) To generate a starting population, HUES cells were cultured on MEF feeder cells until 80-90% confluent, then treated with 25 ng/ml Wnt3a (R&D systems)+100 ng/ml Activin A (R&D systems) in advanced RPMI (A-RPMI, Invitrogen) supplemented with 1×L-Glu and 1×PS for 1 day, and then 100 ng/ml Activin A in A-RPMI supplemented with 1×L-Glu, 1×PS and 0.2% FBS (Invitrogen). Two days later, the media was changed to 50 ng/ml FGF10 (R&D systems)+0.25 μM KAAD-CYC (Calbiochem) in A-RPMI supplemented with 1×L-Glu, 1×PS and 2% FBS and maintained for additional 2 days. Cells were then transferred to 50 ng/ml FGF10+0.25 μM KAAD-CYC+2 μM RA (Sigma) in DMEM supplemented with 1×L-Glu, 1×PS, 1×B27 (Invitrogen) and cultured for an additional 4 days. ILV was obtained from Axxora, KAAD-CYC, TPB, PMA, BISI, Gö 6983, U0126 and PD98059 were obtained from Calbiochem and RA were obtained from Sigma.
(§2) Cells were fixed with 10% formalin solution (Sigma) for 20 min at room temperature. Immunostaining was carried out with standard protocols. The following primary antibodies were used: goat anti-Pdx1 (1:500; R&D system); rabbit anti-FOXA2 (1:500; Upstate); rabbit anti-HNF6 (1:200; Santa Cruz Biotech); guinea pig anti-insulin (1:1000; Dako); rabbit anti-c-peptide (1:500; Linco); rabbit anti-amylase (1:200, Sigma); goat anti-HNF1β (1:100, Santa Cruz Biotech); and biotinylated DBA (1:400; Vector Lab). Alexa-488-, Alexa-555, and Alexa-647-conjugated donkey antibodies against mouse, rabbit, guinea pig and goat, and Pacific Blue conjugate-streptavidin (Invitrogen) were used at 1:300 dilution.
To determine whether PKC signaling is being activated in HUES-derived cells, HUES8-derived definitive endoderm population was treated with two PKC agonists, TPB ((2S,5S)-(E,E)-8-(5-(4-(trifluoromethyl)phenyl)-2,4-pentadienoylamino)benzolactam) and PMA (phorbol-12-myristate-13-acetate), in the absence of ILV. […] Furthermore, HUES8-derived population was treated with two PKC antagonists, BISI (Bisindolylmaleimide I) and Gö 6983, in the presence of ILV.
Experiments were performed to monitor downstream signaling by PKC. Since ERK signaling has been reported to be regulated by PKC (Ueda et al., 1996), the activity of ERK signaling was examined with Western blotting to detect the phosphorylation of ERK1/2 at Thr-202/Tyr-204.

[2] = tested on: HUES9-derived population (Pdx1+ cells); experiment: High throughput screen for compounds increasing Pdx1+ cells; assay type: cell-based, human; conditions: HUES9-derived cells, 10 μM, 1 μM and 0.1 μM, four days
Method: as §1
For a high throughput screen, the starting material was hESCs (HUES9 cells) that were induced to pancreatic lineage using a slightly modified version of previously published protocols (D'Amour et al., 2006; Jiang et al., 2007), as described in Example 1. After 9 days of stepwise differentiation, a heterogeneous population of cells was generated containing cells that stained strongly, weakly or not at all with a Pdx1 antibody. Any cell that stained with the Pdx1 staining antibody was counted as Pdx1^+ cells regardless of staining intensity. Together, the Pdx1^+ cells comprises 5.1±1.8% of the total cell number.
To carry out the screen, the cells were trypsinized and plated on 804G-coated 384-well plates at 6000 cells/well using chemically defined media (DMEM supplemented with 2 mM L-Glu, 1×PS, 1×B27). After overnight incubation, compounds were screened by adding them to provide a final concentration of 10 μM, 1 μM and 0.1 μM. Four days later, the cells were stained with Pdx1 antibody and the plates were analyzed with Opera high content screening system (PerkinElmer).
The wells in which the percentage of Pdx1^+ cells is higher than present at day 1 and higher than day 5 treated with DMSO were selected as primary hits. Compounds that increase both the number and percentage of Pdx1^+ cells were picked as primary hits. Eleven compounds produced hits. (FIG. 7, Table I in FIG. 9 and formulas in FIG. 10). These eleven compounds were (−)-Indolactam V (FIG. 1c and Compound I in Table 1) boldine (Compound II), rotenone (Compound III), ethopropazine hydrochloride (Compound IV), cedrelone (Compound V), prieurianin (Compound VI), strophanthidin (Compound VII), trimeprazine tartrate (Compound VIII), terconazole (Compound IX), dimethisoquin hydrochloride (Compound X), harmine hydrochloride (Compound XI).
as §2

PKCμ = biological target: T1, PKCμ; conditions: Gschwendt et al., 1996; cited from earlier work

Molecule | primary hits (increase both the number and percentage of Pdx1+ cells) [2] | also measured
CN(C)CCCn1cc(C2=C(c3c[nH]c4ccccc34)C(=O)NC2=O)c2ccccc21 [BISI, Bisindolylmaleimide I] | – | percentage of Pdx1+ cells, PKC antagonists in the presence of ILV ([1]; HUES8-derived population): 0.6±0.1%
CC(C)[C@H]1C(=O)N[C@H](CO)Cc2cc(NC(=O)/C=C/C=C/c3ccc(C(F)(F)F)cc3)ccc2N1C [TPB, (2S,5S)-(E,E)-8-(5-(4-(trifluoromethyl)phenyl)-2,4-pentadienoylamino)benzolactam] | – | percentage of Pdx1+ cells, PKC agonists in the absence of ILV ([1]; 4 days): 15.4±2.9%
CCCCCCCCCCCCCC(=O)O[C@@H]1[C@@H](C)[C@@]2(O)[C@@H](C=C(CO)C[C@]3(O)C(=O)C(C)=C[C@@H]23)[C@@H]2C(C)(C)[C@]12OC(C)=O [PMA, phorbol-12-myristate-13-acetate] | – | percentage of Pdx1+ cells, PKC agonists in the absence of ILV ([1]; 4 days): 21.3±4.0%
COc1ccc2c(c1)[nH]c1c(C)nccc12.Cl [Compound XI, harmine hydrochloride] | hits | –
COc1ccc2c(c1)c(C1=C(c3c[nH]c4ccccc34)C(=O)NC1=O)cn2CCCN(C)C [Gö 6983] | – | percentage of Pdx1+ cells, PKC antagonists in the presence of ILV ([1]; HUES8-derived population): 0.8±0.2%; suppression of PKCμ kinase activity (PKCμ): not effective
COc1cccc(-c2cc(=O)c3ccccc3o2)c1N [PD098059] | – | percentage of Pdx1+ cells, MEK/ERK inhibitors together with ILV ([1]; 300 nM ILV plus 50 μM PD098059 or 10 μM U0126, 4 days): 0.4±0.2%
N#CC(=C(/N)Sc1ccccc1N)/C(C#N)=C(\N)Sc1ccccc1N [Compound U0126] | – | percentage of Pdx1+ cells, MEK/ERK inhibitors together with ILV [1]: 0.3±0.2%
C[C@]12CC[C@H]3[C@@H](CC[C@]4(O)C[C@@H](O)CC[C@]34C=O)[C@@]1(O)CC[C@@H]2C1=CC(=O)OC1 [Compound VII, strophanthidin] | hits | –
C=C(C)[C@H]1Cc2c(ccc3c2O[C@@H]2COc4cc(OC)c(OC)cc4[C@@H]2C3=O)O1 [Compound III, rotenone] | hits | –
CCN(CC)C(C)CN1c2ccccc2Sc2ccccc21 (stereo not drawn) [Compound IV, ethopropazine hydrochloride] | hits | –
CCCCc1cc2ccccc2c(OCCN(C)C)n1 [Compound X, dimethisoquin hydrochloride] | hits | –
COc1cc2c(cc1O)C[C@H]1c3c(cc(O)c(OC)c3-2)CCN1C [Compound II, boldine] | hits | –
CC(C)N1CCN(c2ccc(OCC3COC(Cn4cncn4)(c4ccc(Cl)cc4Cl)O3)cc2)CC1 (stereo not drawn) [Compound IX, terconazole] | hits | –
C=C1[C@@H]([C@@]2(C)[C@@H](OC(C)=O)CC(=O)O[C@](C)(COC(C)=O)[C@@H]2C(=O)OC)[C@@H](OC=O)[C@H](OC(=O)[C@H](O)[C@H](C)CC)[C@@]2(C)[C@H](c3ccoc3)CC(=O)[C@]12O [Compound VI, prieurianin] | hits | –
CC1(C)C(=O)C=C[C@@]2(C)C1=C(O)C(=O)[C@]1(C)[C@@H]2CC[C@@]2(C)[C@H](c3ccoc3)C[C@H]3O[C@]321 [Compound V, cedrelone] | hits | –
trimeprazine tartrate [Compound VIII] | hits | –
FGF10: mitogen (fibroblast growth factor) reported to be involved in pancreatic development, from R&D systems (protein, UniProt O15520 38-208, looked up) Fibroblast growth factor 10: QALGQDMVSPEATNSSSSSFSSPSSAGRHVRSYNHLQGDVRWRKLFSFTKYFLKIEKNGKVSGTKKENCPYSILEITSVEIGVVAVKAINSNYYLAMNKKGKLYGSKEFNNDCKLKERIEENGYNTYASFNWQHNGRQMYVALNGKGAPRRGQKTRRKNTSAHFLPMVVHS | – | percentage of cells stained by Pdx1 antibody ([1]; HUES8-derived population, 4 days, 300 nM ILV and/or 50 ng/ml FGF10): 5.7±2.3%
